According to article PMC12211128, “Safety, tolerability, pharmacokinetic and pharmacodynamic effects of the muscarinic M1 positive allosteric modulator VU0467319 for Alzheimer’s disease: a single ascending-dose study in healthy participants” (Alzheimer's Research & Therapy, 2025):

System: healthy participants
Assay: Auditory oddball ERP task
Format: in vivo, human
Settings: for Auditory oddball P300 amplitude, targets vs standards, effect size d: post-dose session; for Mean amplitude over the parietal cortex, Auditory Oddball, Standard trials / Mean amplitude over the parietal cortex, Auditory Oddball, Target trials: mean (SD)
Experimental: Following the cognitive battery, an electrophysiology recording was set up. Visual and auditory ERPs were recorded using a 128-channel Geodesic sensor net (EGI, Inc., Eugene, OR; [37, 38]). The electrophysiological recording was sampled at 250 Hz with filters set at 0.1–100 Hz. During data collection, all electrodes were referenced to vertex (Cz). The recording session lasted approximately 30 min.
Auditory and visual oddball tasks were performed to assess attention in auditory and visual modalities. In the auditory task, a pair of two pure tones (single formant) at 1000 and 1500 Hz were the stimuli. In the visual task, the stimuli were a pair of letters (X & O). The assignment of stimuli to standard and target conditions (70% & 30% of the trials respectively), was counterbalanced across participants. Each participant was asked to press a different button using their preferred hand upon presentation of the standard and the target stimulus. On average, auditory and visual tasks lasted 6–7 min each.
ERP processing and Analysis: Single-trial ERPs were derived by extracting a 100-ms pre-stimulus baseline and a 900 ms post-stimulus interval. The trials were screened for ocular and motor artifacts using automated procedures with standard threshold settings (NetStation 4.4, EGI, Inc) and verified using manual review. Data for electrodes characterized by consistent artifacts were replaced using the spherical spline interpolation algorithm. If more than 15 electrodes within a trial were noisy, the entire trial was discarded. Remaining artifact-free trials were averaged separately for each condition (standard vs. oddball; novel vs. repeated images), re-referenced to an average reference, and baseline corrected. For individual participant’s data to be included in the analysis, each condition average had to have a minimum of 10 artifact-free trials.
Statistical analysis focused on a priori selected electrode clusters corresponding to frontal, central, and parietal midline locations (Fz, Cz, Pz in 10–20 notation), confirmed using spatial principal components analysis. Mean amplitudes were calculated within 250–400 ms (frontal P3a), 300–500 ms (parietal P300), and 500–800 ms (parietal P600) temporal windows. These a-priori selected windows were confirmed using temporal principal components analysis.
Analyses for the auditory and visual oddball ERPs focused on the parietal (P300) and frontal (P3a) responses to standard and target stimuli. Differences in the amplitude, latency, and scalp topography of the responses were examined. […] For the incidental memory paradigm, differences in the mean amplitude of the parietal P300/P600 responses to repeated vs. novel presentations. The amplitude of the parietal P300/P600 waveform measures stimulus recognition. A larger positive amplitude for repeated compared to novel images indicates spontaneous formation of a memory trace.
Auditory and visual oddball tasks were performed to assess attention in auditory and visual modalities (Comerchero & Polich, 1999; Polich, 2007). In the auditory task, a pair of two pure tones (single formant) at 1000 and 1500 Hz were the stimuli. Tones were equated in duration (300 ms) and rise/decay times. Tones were presented at 75 dB SPL (measured at the ear) through a speaker positioned 1 meter in front of the participant. In the visual task, the stimuli were a pair of letters (X & O). All stimuli were presented in random order for 500 ms in the center of a computer monitor positioned 1 meter in front of the participant. For both auditory and visual tasks, 200 trials were presented with the inter-stimulus interval varying randomly between 1000-1300 ms to prevent habituation to stimulus onset. The assignment of stimuli to standard and target conditions (70% & 30% of the trials respectively), was counterbalanced across participants. […]

[1] = VU319 120 mg, fasting, post-drug session, n = 9
[2] = VU319 120 mg, fasting, pre-drug session, n = 9
[3] = VU319 120 mg, fed, post-drug session, n = 9
[4] = VU319 120 mg, fed, pre-drug session, n = 9

## Cn1cc2c(-c3cc(F)c(CN4Cc5ncccc5C4=O)c(F)c3)cccc2n1 [VU319]
60 mg, p = 0.002
  Auditory oddball parietal amplitude, target vs standard, post- vs pre-dose, effect size d: 1.32
120 mg, SAD, p = 0.18
  Auditory oddball parietal amplitude, target vs standard, post- vs pre-dose, effect size d: 0.64
120 mg, fasted, p = 0.033
  Auditory oddball P300 amplitude, targets vs standards, effect size d: 0.8
120 mg, fed, p = 0.25
  Auditory oddball P300 amplitude, targets vs standards, effect size d: 0.85
SAD study, 60 mg, Post-Drug
  Mean amplitude over the parietal cortex, Auditory Oddball, Standard trials: 1.31 (1.02) µV
  Mean amplitude over the parietal cortex, Auditory Oddball, Target trials: 3.69 (1.83) µV
SAD study, 60 mg, Pre-Drug
  Mean amplitude over the parietal cortex, Auditory Oddball, Standard trials: 1.23 (0.96) µV
  Mean amplitude over the parietal cortex, Auditory Oddball, Target trials: 2.0 (1.32) µV
SAD study, 120 mg, Post-Drug
  Mean amplitude over the parietal cortex, Auditory Oddball, Standard trials: 0.85 (1.41) µV
  Mean amplitude over the parietal cortex, Auditory Oddball, Target trials: 3.18 (1.24) µV
SAD study, 120 mg, Pre-Drug
  Mean amplitude over the parietal cortex, Auditory Oddball, Standard trials: 1.83 (1.04) µV
  Mean amplitude over the parietal cortex, Auditory Oddball, Target trials: 3.23 (1.85) µV
SAD study, 240 mg, Post-Drug
  Mean amplitude over the parietal cortex, Auditory Oddball, Standard trials: 1.04 (1.54) µV
  Mean amplitude over the parietal cortex, Auditory Oddball, Target trials: 2.42 (1.53) µV
SAD study, 240 mg, Pre-Drug
  Mean amplitude over the parietal cortex, Auditory Oddball, Standard trials: 1.34 (1.02) µV
  Mean amplitude over the parietal cortex, Auditory Oddball, Target trials: 2.94 (1.57) µV
SAD study, 400 mg, Post-Drug
  Mean amplitude over the parietal cortex, Auditory Oddball, Standard trials: 0.48 (0.92) µV
  Mean amplitude over the parietal cortex, Auditory Oddball, Target trials: 2.12 (0.34) µV
SAD study, 400 mg, Pre-Drug
  Mean amplitude over the parietal cortex, Auditory Oddball, Standard trials: 0.66 (1.09) µV
  Mean amplitude over the parietal cortex, Auditory Oddball, Target trials: 1.7 (0.67) µV
SAD study, 600 mg, Post-Drug
  Mean amplitude over the parietal cortex, Auditory Oddball, Standard trials: 1.84 (1.22) µV
  Mean amplitude over the parietal cortex, Auditory Oddball, Target trials: 4.31 (2.13) µV
SAD study, 600 mg, Pre-Drug
  Mean amplitude over the parietal cortex, Auditory Oddball, Standard trials: 0.74 (1.24) µV
  Mean amplitude over the parietal cortex, Auditory Oddball, Target trials: 3.08 (2.61) µV
[1]
  Mean amplitude over the parietal cortex, Auditory Oddball, Standard trials: 1.17 (1.66) µV
  Mean amplitude over the parietal cortex, Auditory Oddball, Target trials: 2.56 (2.38) µV
[2]
  Mean amplitude over the parietal cortex, Auditory Oddball, Standard trials: 1.09 (1.78) µV
  Mean amplitude over the parietal cortex, Auditory Oddball, Target trials: 2.11 (2.11) µV
[3]
  Mean amplitude over the parietal cortex, Auditory Oddball, Standard trials: -0.07 (0.96) µV
  Mean amplitude over the parietal cortex, Auditory Oddball, Target trials: 0.8 (1.11) µV
[4]
  Mean amplitude over the parietal cortex, Auditory Oddball, Standard trials: 0.51 (1.65) µV
  Mean amplitude over the parietal cortex, Auditory Oddball, Target trials: 2.32 (1.46) µV
